Reference: patent publication US20130029978A1, “NOVEL ARYL UREA DERIVATIVE” (MOCHIDA PHARMACEUTICAL CO., LTD., priority 2009, published 2013)

How the values were obtained:
FAAH [1] = molecular target: T1, FAAH (Rattus norvegicus, UniProt P97612); experiment: In vitro FAAH inhibitory activity using rat brain microsomal fraction (AAMCA substrate, fluorescence); assay type: biochemical; details: 4 μg/well, 30 min incubation at room temperature, read-out: FAAH Inhibitory Activity IC50 Rat brain microsome
T1 construct: the rat brain microsomal fraction (final concentration of 4 μg/well) prepared in (2); from tissue; host or cells: brain of male Sprague-Dawley rats (microsomal fraction)
T1 sequence (P97612 1-579): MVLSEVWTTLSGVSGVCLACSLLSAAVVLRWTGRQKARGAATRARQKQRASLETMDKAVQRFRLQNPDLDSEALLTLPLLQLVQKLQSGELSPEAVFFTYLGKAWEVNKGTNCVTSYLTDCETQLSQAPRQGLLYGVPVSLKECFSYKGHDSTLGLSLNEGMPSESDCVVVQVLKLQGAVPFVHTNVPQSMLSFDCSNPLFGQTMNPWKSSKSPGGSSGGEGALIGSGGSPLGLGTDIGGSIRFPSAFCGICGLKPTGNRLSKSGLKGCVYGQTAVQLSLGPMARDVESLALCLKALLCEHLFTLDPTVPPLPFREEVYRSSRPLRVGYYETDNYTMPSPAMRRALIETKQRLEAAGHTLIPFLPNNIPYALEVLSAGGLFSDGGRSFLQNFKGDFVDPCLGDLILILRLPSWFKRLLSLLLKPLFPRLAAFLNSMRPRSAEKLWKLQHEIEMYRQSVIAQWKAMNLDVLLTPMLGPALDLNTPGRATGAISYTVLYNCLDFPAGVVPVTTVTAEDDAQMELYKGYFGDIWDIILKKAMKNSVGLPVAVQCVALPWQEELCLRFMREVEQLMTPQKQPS
Method: Male Sprague-Dawley (SD) rats of 10 weeks old were sacrificed by decapitation and the brains were removed. To the brains was added a buffer solution (50 mmol/L HEPES (pH 8.0), 1 mmol/L EDTA, 0.32 mol/L sucrose, Complete EDTA-free (Roche Diagnostics)) of 5-fold volume with respect to the brain wet weight, which was homogenized in a Potter homogenizer. The homogenate was centrifuged (9000 g, 10 mins., 4° C.) to collect the supernatant. The supernatant was further ultracentrifuged (105000 g, 60 mins., 4° C.) to collect the precipitates. The precipitates were suspended in a buffer solution (50 mmol/L HEPES (pH 8.0), 1 mmol/L EDTA) of ¼ volume with respect to the wet weight of the precipitates to quantify the protein level with the BCA Protein Assay (PIERCE).
(§1) In a 384 well plate (Corning), were added the dilutions of compounds to be tested in various concentrations with 30 μL of a buffer solution (50 mmol/L HEPES (pH 7.4), 1 mmol/L EDTA, 0.1% bovine serum albumin) and the U-937 microsomal fraction (final concentration of 6 μg/well) prepared in (1) or the rat brain microsomal fraction (final concentration of 4 μg/well) prepared in (2), followed by preincubation for 5 minutes at room temperature. AAMCA (SIGMA, (final concentration of 4 mmol/L) as a substrate was added thereto, and the U-937 microsomal fraction was incubated for 120 minutes and the rat brain microsomal fraction for 30 minutes, at room temperature. Before and after the incubation, fluorescence counts were measured using EnVision 2000 (Perkin Elmer) at an excitation wavelength of 355 nm with an emission wavelength of 460 nm to calculate the difference. The count of the well added with the solvent in place of the compound tested and the count of the well added with no microsome were made 0% and 100%, respectively, and the inhibitory activity of each compound tested was determined.
(§2) The FAAH inhibitory activity of the test compound was expressed by IC50 value. The compound of the present invention showing the IC50 value smaller than 0.1 μmol/L, the compound showing the IC50 value not smaller than 0.1 μmol/L and smaller than 1 μmol/L and the compound showing the IC50 value not smaller than 1 μmol/L were designated as +++, ++ and +, respectively, which are shown in TABLE 1.

FAAH [2] = molecular target: T2, FAAH (Homo sapiens, UniProt O00519); experiment: In vitro FAAH inhibitory activity using U-937 microsomal fraction (AAMCA substrate, fluorescence); assay type: biochemical; details: 6 μg/well, 120 min incubation at room temperature, read-out: FAAH Inhibitory Activity IC50 U-937 microsome
T2 construct: the U-937 microsomal fraction (final concentration of 6 μg/well) prepared in (1); endogenous in cells; host or cells: U-937 cells (microsomal fraction)
T2 sequence (O00519 1-579): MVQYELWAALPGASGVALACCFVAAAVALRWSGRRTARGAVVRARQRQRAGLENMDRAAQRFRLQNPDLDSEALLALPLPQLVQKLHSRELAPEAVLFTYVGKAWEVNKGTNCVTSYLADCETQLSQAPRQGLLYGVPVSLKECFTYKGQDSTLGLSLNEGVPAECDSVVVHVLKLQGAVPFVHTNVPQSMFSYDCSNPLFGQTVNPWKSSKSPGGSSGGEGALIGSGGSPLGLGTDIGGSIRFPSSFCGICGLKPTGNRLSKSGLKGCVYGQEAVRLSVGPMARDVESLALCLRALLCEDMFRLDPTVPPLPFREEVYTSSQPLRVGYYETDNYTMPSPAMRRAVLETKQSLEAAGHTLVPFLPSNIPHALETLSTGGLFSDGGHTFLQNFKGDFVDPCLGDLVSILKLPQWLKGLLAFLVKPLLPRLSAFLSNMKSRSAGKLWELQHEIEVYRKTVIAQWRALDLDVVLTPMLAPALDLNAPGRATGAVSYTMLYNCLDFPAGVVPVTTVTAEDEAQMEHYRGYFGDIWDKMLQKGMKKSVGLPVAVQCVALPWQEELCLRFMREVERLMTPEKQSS
Method: The cultured U-937 cells were harvested, and 0.33-fold volume of buffer solution (50 mmol/L HEPES-NaOH (pH 7.4), 1 mmol/L EDTA, Complete EDTA-free (Roche Diagnostics)) was added to the cells, which was suspended and homogenized. After ultrasonication, the cells were further homogenized and centrifuged (600 g, 10 mins., 4° C.) to collect the supernatant. The supernatant collected was again centrifuged (12000 g, 20 mins., 4° C.), and the supernatant was ultracentrifuged (100000 g, 60 mins., 4° C.) to collect the precipitates. The precipitates were suspended in a buffer solution (50 mmol/L HEPES-NaOH (pH 7.4), 1 mmol/L EDTA) of 5-fold volume with respect to the wet weight of the precipitates to quantify the protein level with the BCA Protein Assay (PIERCE).
as §1, §2

O=C(Nc1ccccc1)N1CCC(c2noc3cc(F)ccc23)CC1 [Example 1, N-Phenyl-4-(6-fluoro-1,2-benzisoxazo-3-yl)piperidine-1-carboxamide] was tested, and the IC50 (FAAH [1]) was over 1000 nM and the IC50 (FAAH [2]) was 100 to 1000 nM.
Molecule O=C(Nc1cccnn1)N1CCN(C2CCOc3ccc(Oc4ccc(C(F)(F)F)cn4)cc32)CC1 (centres unmarked) [Example 5, N-Pyridazin-3-yl-4-[6-[[5-(trifluoromethyl)-2-pyridinyl]oxy]-3,4-dihydro-2H-1-benzopyran-4-yl]piperazine-1-carboxamide] has an IC50 (FAAH [1]) of 100 to 1000 nM and an IC50 (FAAH [2]) of 100 to 1000 nM.
With CC1(C)CC(N2CCN(C(=O)Nc3cccnn3)CC2)c2ccc(C(F)(F)F)cc2O1 (centres unmarked) [Example 9, N-Pyridazin-3-yl-4-[2,2-dimethyl-7-(trifluoromethyl)-3,4-dihydro-2H-1-benzopyran-4-yl]piperazine-1-carboxamide] the IC50 (FAAH [1]) was 100 to 1000 nM and the IC50 (FAAH [2]) was over 1000 nM.
O=C(Nc1cccnn1)N1CCN(C2CCCOc3cc(C(F)(F)F)ccc32)CC1 (centres unmarked) [Example 10, N-Pyridazin-3-yl-4-[8-(trifluoromethyl)-2,3,4,5-tetrahydrobenz-1-oxepin-5-yl]piperazine-1-carboxamide] gave an IC50 (FAAH [1]) of 100 to 1000 nM and an IC50 (FAAH [2]) of 100 to 1000 nM.
Work on O=C(Nc1cccnn1)N1CCN(C2CCOc3cc(C(F)(F)F)c(F)cc32)CC1 (centres unmarked) [Example 12, N-Pyridazin-3-yl-4-[6-fluoro-7-(trifluoromethyl)-3,4-dihydro-2H-1-benzopyran-4-yl]piperazine-1-carboxamide] yielded an IC50 (FAAH [1]) of under 100 nM and an IC50 (FAAH [2]) of 100 to 1000 nM.
For O=C(Nc1ccccc1)N1CCN(C2CCOc3cc(C(F)(F)F)ccc32)C(=O)C1 (centres unmarked) [Example 15, N-Phenyl-3-yl-4-[7-(trifluoromethyl)-3,4-dihydro-2H-1-benzopyran-4-yl]-3-oxo-piperazine-1-carboxamide], the IC50 (FAAH [1]) was 100 to 1000 nM and the IC50 (FAAH [2]) was 100 to 1000 nM.
Work on O=C(Nc1cccnc1)N1CCN(C2CCOc3cc(C(F)(F)F)ccc32)CC1 (centres unmarked) [Example 17, N-Pyridine-3-yl-4-[7-(trifluoromethyl)-3,4-dihydro-2H-1-benzopyran-4-yl]piperazine-1-carboxamide] yielded an IC50 (FAAH [1]) of under 100 nM and an IC50 (FAAH [2]) of under 100 nM.
Molecule Cc1ccc(NC(=O)N2CCN(C3CCOc4cc(C(F)(F)F)ccc43)CC2)cn1 (centres unmarked) [Example 18, N-(6-Methyl-pyridine-3-yl)-4-[7-(trifluoromethyl)-3,4-dihydro-2H-1-benzopyran-4-yl]piperazine-1-carboxamide] has an IC50 (FAAH [1]) of 100 to 1000 nM and an IC50 (FAAH [2]) of under 100 nM.
Work on O=C(Nc1nccs1)N1CCN(C2CCOc3cc(C(F)(F)F)ccc32)CC1 (centres unmarked) [Example 22, N-(1,3-Thiazol-2-yl)-4-[7-(trifluoromethyl)-3,4-dihydro-2H-1-benzopyran-4-yl]piper azine-1-carboxamide] yielded an IC50 (FAAH [1]) of over 1000 nM and an IC50 (FAAH [2]) of over 1000 nM.
In the case of O=C(Nc1cccnn1)N1CCC(N2CCOc3cc(C(F)(F)F)ccc32)CC1 [Example 24, N-Pyridazin-3-yl-4-[7-(trifluoromethyl)-2,3-dihydro-1,4-benzoxazin-4-yl]piperidine-1-carboxamide], the IC50 (FAAH [1]) is reported as 100 to 1000 nM and the IC50 (FAAH [2]) is reported as under 100 nM.
With O=C(Nc1cccnc1)N1CCN(C2CCOc3c2ccc(F)c3F)CC1 (centres unmarked) [Example 35, 4-(7,8-Difluoro-3,4-dihydro-2H-chromen-4-yl)-N-(pyridine-3-yl)piperazine-1-carboxamide] the IC50 (FAAH [1]) was under 100 nM and the IC50 (FAAH [2]) was under 100 nM.
O=C(Nc1cnccn1)N1CCN(C2CCOc3cc(C(F)(F)F)ccc32)CC1 (centres unmarked) [Example 52, N-(Pyrazin-2-yl)-4-[7-(trifluoromethyl)-3,4-dihydro-2H-chromen-4-yl]piperazine-1-carboxamide] showed an IC50 (FAAH [1]) of under 100 nM and an IC50 (FAAH [2]) of under 100 nM.
Work on “N-(6-Methoxypyridazin-2-yl)-4-[7-(trifluoromethyl)-3,4-dihydro-2H-1-benzopyran-4-yl]piperazine-1-carboxamide [Example 21]” yielded an IC50 (FAAH [1]) of 100 to 1000 nM and an IC50 (FAAH [2]) of 100 to 1000 nM.
